# System: desired test plant species
# Assay: Foliar-applied postemergence herbicidal activity in direct seeded rice (Table 6)
# Assay type: in vivo
# Conditions: 21 DAA
# Text: Seeds or nutlets of the desired test plant species were planted in a soil matrix prepared by mixing a loam soil (43 percent silt, 19 percent clay, and 38 percent sand, with a pH of about 8.1 and an organic matter content of about 1.5 percent) and river sand in an 80 to 20 ratio. The soil matrix was contained in plastic pots with a surface area of 139.7 cm^2. When required to ensure good germination and healthy plants, a fungicide treatment and/or other chemical or physical treatment was applied. The plants were grown for 10-17 d in a greenhouse with an approximate 14-h photoperiod which was maintained at about 29° C. during the day and 26° C. during the night. Nutrients and water were added on a regular basis and supplemental lighting was provided with overhead metal halide 1000-Watt lamps as necessary. The plants were employed for testing when they reached the second or third true leaf stage. Treatments consisted of compounds 45, 34, and 66. Weighed amounts of technical compounds were placed in individual 25 mL glass vials and dissolved in 8 mL of 97:3 v/v acetone-DMSO to obtain stock solutions. […] The spray application solutions were prepared by removing 4 mL of the stock solution and diluting with 4 mL of 97:3 v/v acetone-DMSO and continued serial dilution to obtain 1⁄2×, 1⁄4×, 1⁄8×, and 1/16× rates of the high rate. Spray solutions were diluted to the appropriate final concentrations with the addition of 8 mL of an aqueous mixture of 1.875% (v/v) Agri-dex crop oil concentrate. The final 12-mL spray solutions each contained 1.25% (v/v) Agri-dex crop oil concentrate, 32.3% acetone, and 1.0% DMSO. Compound requirements are based upon a 12 mL application volume at a rate of 187 L/ha. Spray solutions were applied to the plant material with an overhead Mandel track sprayer equipped with […] nozzles calibrated to deliver 187 L/ha over an application area of 0.503 square meters (m^2) at a spray height of 18 inches ([…]) above average plant canopy height. Control plants were sprayed in the same manner with the solvent blank. The treated plants and control plants were placed in a greenhouse as described above and watered by sub-irrigation to prevent wash-off of the test compounds. After approximately 3 weeks, the condition of the test plants, compared with that of the untreated plants, was determined visually and scored on a scale of 0 to 100 percent where 0 corresponds to no injury and 100 corresponds to complete kill. By applying the well-accepted probit analysis as described by J. Berkson in Journal of the […], 48, 565 (1953) and by D. Finney in “Probit Analysis” Cambridge University Press (1952) or by plotting the mean data and fitting a logarithmic curve to the portion of the data where there was a dose response using Microsoft Excel®, the above data can be used to calculate GR50 and GR90 values, which are defined as growth reduction factors that correspond to the effective dose of herbicide required to kill or control 50 percent or 90 percent, respectively, of a target plant.
structure (smiles),measurement,setting,value
COC(=O)c1nc(-c2ccc(Cl)c(OC)c2F)c(F)c(N)c1OC [Compound 34],Mean Visual Injury (%)-21 Days After Application AESSE,"AESSE (Aeschynomene sensitiva, sensitive jointvetch), 4.38 g ae/ha",100%
same,Mean Visual Injury (%)-21 Days After Application AESSE,"AESSE (Aeschynomene sensitiva, sensitive jointvetch), 8.75 g ae/ha",100%
same,Mean Visual Injury (%)-21 Days After Application AESSE,"AESSE (Aeschynomene sensitiva, sensitive jointvetch), 17.5 g ae/ha",100%
same,Mean Visual Injury (%)-21 Days After Application AESSE,"AESSE (Aeschynomene sensitiva, sensitive jointvetch), 35 g ae/ha",100%
same,Mean Visual Injury (%)-21 Days After Application AESSE,"AESSE (Aeschynomene sensitiva, sensitive jointvetch), 70 g ae/ha",100%
same,GR50 AESSE,"AESSE (Aeschynomene sensitiva, sensitive jointvetch), dose to kill or control 50 percent",<4.38 g ae/ha
same,GR90 AESSE,"AESSE (Aeschynomene sensitiva, sensitive jointvetch), dose to kill or control 90 percent",<4.38 g ae/ha
same,Mean Visual Injury (%)-21 Days After Application BRAPP,"BRAPP (Brachiaria platyphylla, broadleaf signalgrass), 4.38 g ae/ha",73%
same,Mean Visual Injury (%)-21 Days After Application BRAPP,"BRAPP (Brachiaria platyphylla, broadleaf signalgrass), 8.75 g ae/ha",77%
same,Mean Visual Injury (%)-21 Days After Application BRAPP,"BRAPP (Brachiaria platyphylla, broadleaf signalgrass), 17.5 g ae/ha",93%
same,Mean Visual Injury (%)-21 Days After Application BRAPP,"BRAPP (Brachiaria platyphylla, broadleaf signalgrass), 35 g ae/ha",92%
same,Mean Visual Injury (%)-21 Days After Application BRAPP,"BRAPP (Brachiaria platyphylla, broadleaf signalgrass), 70 g ae/ha",93%
same,GR50 BRAPP,"BRAPP (Brachiaria platyphylla, broadleaf signalgrass), dose to kill or control 50 percent",<4.38 g ae/ha
same,GR90 BRAPP,"BRAPP (Brachiaria platyphylla, broadleaf signalgrass), dose to kill or control 90 percent",30.2 g ae/ha
same,Mean Visual Injury (%)-21 Days After Application CYPDI,"CYPDI (Cyperus difformis, small-flower flatsedge), 4.38 g ae/ha",87%
same,Mean Visual Injury (%)-21 Days After Application CYPDI,"CYPDI (Cyperus difformis, small-flower flatsedge), 8.75 g ae/ha",95%
same,Mean Visual Injury (%)-21 Days After Application CYPDI,"CYPDI (Cyperus difformis, small-flower flatsedge), 17.5 g ae/ha",100%
same,Mean Visual Injury (%)-21 Days After Application CYPDI,"CYPDI (Cyperus difformis, small-flower flatsedge), 35 g ae/ha",100%
same,Mean Visual Injury (%)-21 Days After Application CYPDI,"CYPDI (Cyperus difformis, small-flower flatsedge), 70 g ae/ha",100%
same,GR50 CYPDI,"CYPDI (Cyperus difformis, small-flower flatsedge), dose to kill or control 50 percent",<4.38 g ae/ha
same,GR90 CYPDI,"CYPDI (Cyperus difformis, small-flower flatsedge), dose to kill or control 90 percent",5.8 g ae/ha
same,Mean Visual Injury (%)-21 Days After Application CYPES,"CYPES (Cyperus esculentus, yellow nutsedge), 4.38 g ae/ha",73%
same,Mean Visual Injury (%)-21 Days After Application CYPES,"CYPES (Cyperus esculentus, yellow nutsedge), 8.75 g ae/ha",73%
same,Mean Visual Injury (%)-21 Days After Application CYPES,"CYPES (Cyperus esculentus, yellow nutsedge), 17.5 g ae/ha",85%
same,Mean Visual Injury (%)-21 Days After Application CYPES,"CYPES (Cyperus esculentus, yellow nutsedge), 35 g ae/ha",95%
same,Mean Visual Injury (%)-21 Days After Application CYPES,"CYPES (Cyperus esculentus, yellow nutsedge), 70 g ae/ha",100%
same,GR50 CYPES,"CYPES (Cyperus esculentus, yellow nutsedge), dose to kill or control 50 percent",<4.38 g ae/ha
same,GR90 CYPES,"CYPES (Cyperus esculentus, yellow nutsedge), dose to kill or control 90 percent",27.4 g ae/ha
same,Mean Visual Injury (%)-21 Days After Application CYPIR,"CYPIR (Cyperus iria, rice flatsedge), 4.38 g ae/ha",83%
same,Mean Visual Injury (%)-21 Days After Application CYPIR,"CYPIR (Cyperus iria, rice flatsedge), 8.75 g ae/ha",97%
same,Mean Visual Injury (%)-21 Days After Application CYPIR,"CYPIR (Cyperus iria, rice flatsedge), 17.5 g ae/ha",98%
same,Mean Visual Injury (%)-21 Days After Application CYPIR,"CYPIR (Cyperus iria, rice flatsedge), 35 g ae/ha",100%
same,Mean Visual Injury (%)-21 Days After Application CYPIR,"CYPIR (Cyperus iria, rice flatsedge), 70 g ae/ha",100%
same,GR50 CYPIR,"CYPIR (Cyperus iria, rice flatsedge), dose to kill or control 50 percent",<4.38 g ae/ha
same,GR90 CYPIR,"CYPIR (Cyperus iria, rice flatsedge), dose to kill or control 90 percent",6.7 g ae/ha
same,Mean Visual Injury (%)-21 Days After Application ECHCG,"ECHCG (Echinochloa crus-galli, barnyardgrass), 4.38 g ae/ha",93%
same,Mean Visual Injury (%)-21 Days After Application ECHCG,"ECHCG (Echinochloa crus-galli, barnyardgrass), 8.75 g ae/ha",93%
same,Mean Visual Injury (%)-21 Days After Application ECHCG,"ECHCG (Echinochloa crus-galli, barnyardgrass), 17.5 g ae/ha",96%
same,Mean Visual Injury (%)-21 Days After Application ECHCG,"ECHCG (Echinochloa crus-galli, barnyardgrass), 35 g ae/ha",98%
same,Mean Visual Injury (%)-21 Days After Application ECHCG,"ECHCG (Echinochloa crus-galli, barnyardgrass), 70 g ae/ha",95%
same,GR50 ECHCG,"ECHCG (Echinochloa crus-galli, barnyardgrass), dose to kill or control 50 percent",<4.38 g ae/ha
same,GR90 ECHCG,"ECHCG (Echinochloa crus-galli, barnyardgrass), dose to kill or control 90 percent",<4.38 g ae/ha
same,Mean Visual Injury (%)-21 Days After Application ECHCO,"ECHCO (Echinochloa colonum, junglerice), 4.38 g ae/ha",70%
same,Mean Visual Injury (%)-21 Days After Application ECHCO,"ECHCO (Echinochloa colonum, junglerice), 8.75 g ae/ha",80%
same,Mean Visual Injury (%)-21 Days After Application ECHCO,"ECHCO (Echinochloa colonum, junglerice), 17.5 g ae/ha",92%
same,Mean Visual Injury (%)-21 Days After Application ECHCO,"ECHCO (Echinochloa colonum, junglerice), 35 g ae/ha",97%
same,Mean Visual Injury (%)-21 Days After Application ECHCO,"ECHCO (Echinochloa colonum, junglerice), 70 g ae/ha",98%
same,GR50 ECHCO,"ECHCO (Echinochloa colonum, junglerice), dose to kill or control 50 percent",<4.38 g ae/ha
same,GR90 ECHCO,"ECHCO (Echinochloa colonum, junglerice), dose to kill or control 90 percent",18.6 g ae/ha
same,Mean Visual Injury (%)-21 Days After Application LEFCH,"LEFCH (Leptochloa chinensis, Chinese sprangletop), 4.38 g ae/ha",0%
same,Mean Visual Injury (%)-21 Days After Application LEFCH,"LEFCH (Leptochloa chinensis, Chinese sprangletop), 8.75 g ae/ha",17%
same,Mean Visual Injury (%)-21 Days After Application LEFCH,"LEFCH (Leptochloa chinensis, Chinese sprangletop), 17.5 g ae/ha",30%
same,Mean Visual Injury (%)-21 Days After Application LEFCH,"LEFCH (Leptochloa chinensis, Chinese sprangletop), 35 g ae/ha",40%
same,Mean Visual Injury (%)-21 Days After Application LEFCH,"LEFCH (Leptochloa chinensis, Chinese sprangletop), 70 g ae/ha",37%
same,GR50 LEFCH,"LEFCH (Leptochloa chinensis, Chinese sprangletop), dose to kill or control 50 percent",>70 g ae/ha
same,GR90 LEFCH,"LEFCH (Leptochloa chinensis, Chinese sprangletop), dose to kill or control 90 percent",>70 g ae/ha
same,Mean Visual Injury (%)-21 Days After Application ORYSA ‘Clearfield 171’,"ORYSA (Oryza sativa ‘Clearfield 171’, rice), 4.38 g ae/ha",0%
same,Mean Visual Injury (%)-21 Days After Application ORYSA ‘Clearfield 171’,"ORYSA (Oryza sativa ‘Clearfield 171’, rice), 8.75 g ae/ha",3%
same,Mean Visual Injury (%)-21 Days After Application ORYSA ‘Clearfield 171’,"ORYSA (Oryza sativa ‘Clearfield 171’, rice), 17.5 g ae/ha",12%
same,Mean Visual Injury (%)-21 Days After Application ORYSA ‘Clearfield 171’,"ORYSA (Oryza sativa ‘Clearfield 171’, rice), 35 g ae/ha",23%
same,Mean Visual Injury (%)-21 Days After Application ORYSA ‘Clearfield 171’,"ORYSA (Oryza sativa ‘Clearfield 171’, rice), 70 g ae/ha",22%
same,GR50 ORYSA ‘Clearfield 171’,"ORYSA (Oryza sativa ‘Clearfield 171’, rice), dose to kill or control 50 percent",>70 g ae/ha
same,GR90 ORYSA ‘Clearfield 171’,"ORYSA (Oryza sativa ‘Clearfield 171’, rice), dose to kill or control 90 percent",>70 g ae/ha
same,Mean Visual Injury (%)-21 Days After Application ORYSA ‘Wells’,"ORYSA (Oryza sativa ‘Wells’, rice), 4.38 g ae/ha",0%
same,Mean Visual Injury (%)-21 Days After Application ORYSA ‘Wells’,"ORYSA (Oryza sativa ‘Wells’, rice), 8.75 g ae/ha",0%
same,Mean Visual Injury (%)-21 Days After Application ORYSA ‘Wells’,"ORYSA (Oryza sativa ‘Wells’, rice), 17.5 g ae/ha",3%
same,Mean Visual Injury (%)-21 Days After Application ORYSA ‘Wells’,"ORYSA (Oryza sativa ‘Wells’, rice), 35 g ae/ha",8%
same,Mean Visual Injury (%)-21 Days After Application ORYSA ‘Wells’,"ORYSA (Oryza sativa ‘Wells’, rice), 70 g ae/ha",7%
same,GR50 ORYSA ‘Wells’,"ORYSA (Oryza sativa ‘Wells’, rice), dose to kill or control 50 percent",>70 g ae/ha
same,GR90 ORYSA ‘Wells’,"ORYSA (Oryza sativa ‘Wells’, rice), dose to kill or control 90 percent",>70 g ae/ha
same,Mean Visual Injury (%)-21 Days After Application SCPJU,"SCPJU (Scirpus juncoides, Japanese bulrush), 4.38 g ae/ha",100%
same,Mean Visual Injury (%)-21 Days After Application SCPJU,"SCPJU (Scirpus juncoides, Japanese bulrush), 8.75 g ae/ha",100%
same,Mean Visual Injury (%)-21 Days After Application SCPJU,"SCPJU (Scirpus juncoides, Japanese bulrush), 17.5 g ae/ha",100%
same,Mean Visual Injury (%)-21 Days After Application SCPJU,"SCPJU (Scirpus juncoides, Japanese bulrush), 35 g ae/ha",100%
same,Mean Visual Injury (%)-21 Days After Application SCPJU,"SCPJU (Scirpus juncoides, Japanese bulrush), 70 g ae/ha",100%
same,GR50 SCPJU,"SCPJU (Scirpus juncoides, Japanese bulrush), dose to kill or control 50 percent",<4.38 g ae/ha
same,GR90 SCPJU,"SCPJU (Scirpus juncoides, Japanese bulrush), dose to kill or control 90 percent",<4.38 g ae/ha
same,Mean Visual Injury (%)-21 Days After Application SEBEX,"SEBEX (Sesbania exaltata, hemp sesbania), 4.38 g ae/ha",100%
same,Mean Visual Injury (%)-21 Days After Application SEBEX,"SEBEX (Sesbania exaltata, hemp sesbania), 8.75 g ae/ha",100%
same,Mean Visual Injury (%)-21 Days After Application SEBEX,"SEBEX (Sesbania exaltata, hemp sesbania), 17.5 g ae/ha",100%
same,Mean Visual Injury (%)-21 Days After Application SEBEX,"SEBEX (Sesbania exaltata, hemp sesbania), 35 g ae/ha",100%
same,Mean Visual Injury (%)-21 Days After Application SEBEX,"SEBEX (Sesbania exaltata, hemp sesbania), 70 g ae/ha",100%
same,GR50 SEBEX,"SEBEX (Sesbania exaltata, hemp sesbania), dose to kill or control 50 percent",<4.38 g ae/ha
same,GR90 SEBEX,"SEBEX (Sesbania exaltata, hemp sesbania), dose to kill or control 90 percent",<4.38 g ae/ha
